In PubChem BioAssay (NCI):
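Compound exposure: 48 hours, 5 concentrations, 96-well plates. TGI: concentration producing complete growth inhibition.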

Key:
Test in all cases: DTP human tumour cell line panel, 48 h
M14 melanoma = system: M14 melanoma
SR leukemia = system: SR leukemia
K-562 leukemia = system: K-562 leukemia
NCI-H522 lung = system: NCI-H522 lung
MCF7 breast = system: MCF7 breast
UO-31 renal = system: UO-31 renal
NCI-H226 lung = system: NCI-H226 lung
RXF 393 renal = system: RXF 393 renal
SF-268 CNS = system: SF-268 CNS
SK-MEL-5 melanoma = system: SK-MEL-5 melanoma
LOX IMVI melanoma = system: LOX IMVI melanoma
A549 NSCLC = system: A549 NSCLC
SNB-19 CNS = system: SNB-19 CNS
OVCAR-4 ovarian = system: OVCAR-4 ovarian
NCI-H460 lung = system: NCI-H460 lung
UACC-62 melanoma = system: UACC-62 melanoma
IGROV1 ovarian = system: IGROV1 ovarian
SF-539 CNS = system: SF-539 CNS
A498 renal = system: A498 renal
T-47D breast = system: T-47D breast
HT29 colon = system: HT29 colon
HOP-92 NSCLC = system: HOP-92 NSCLC
HL-60(TB) leukemia = system: HL-60(TB) leukemia
EKVX NSCLC = system: EKVX NSCLC
DU-145 prostate = system: DU-145 prostate
MDA-N = system: MDA-N
CCRF-CEM leukemia = system: CCRF-CEM leukemia
MDA-MB-435 = system: MDA-MB-435
SK-OV-3 ovarian = system: SK-OV-3 ovarian
786-0 renal = system: 786-0 renal
TK-10 renal = system: TK-10 renal
ACHN renal = system: ACHN renal
HCT-116 colon = system: HCT-116 colon
COLO 205 colon = system: COLO 205 colon
OVCAR-3 ovarian = system: OVCAR-3 ovarian
SK-MEL-28 melanoma = system: SK-MEL-28 melanoma
OVCAR-8 ovarian = system: OVCAR-8 ovarian
SNB-75 CNS = system: SNB-75 CNS
MALME-3M melanoma = system: MALME-3M melanoma
HCC-2998 colon = system: HCC-2998 colon
HS 578T breast = system: HS 578T breast
SF-295 CNS = system: SF-295 CNS
KM12 colon = system: KM12 colon
SW-620 colon = system: SW-620 colon
NCI/ADR-RES ovarian = system: NCI/ADR-RES ovarian
CAKI-1 renal = system: CAKI-1 renal
HOP-62 NSCLC = system: HOP-62 NSCLC
SN12C renal = system: SN12C renal
MDA-MB-231 breast = system: MDA-MB-231 breast
PC-3 prostate = system: PC-3 prostate
MOLT-4 leukemia = system: MOLT-4 leukemia
NCI-H23 lung = system: NCI-H23 lung
UACC-257 melanoma = system: UACC-257 melanoma
U251 CNS = system: U251 CNS
SK-MEL-2 melanoma = system: SK-MEL-2 melanoma
HCT-15 colon = system: HCT-15 colon
RPMI-8226 leukemia = system: RPMI-8226 leukemia
BT-549 breast = system: BT-549 breast
OVCAR-5 ovarian = system: OVCAR-5 ovarian

## OC(Cc1cnnc2ccccc12)C(Cl)(Cl)Cl (stereo not given)
M14 melanoma
  TGI: > 10 µM
SR leukemia
  TGI: > 10 µM
K-562 leukemia
  TGI: > 10 µM
NCI-H522 lung
  TGI: > 10 µM
MCF7 breast
  TGI: > 10 µM
UO-31 renal
  TGI: > 10 µM
NCI-H226 lung
  TGI: > 10 µM
RXF 393 renal
  TGI: > 10 µM
SF-268 CNS
  TGI: > 10 µM
SK-MEL-5 melanoma
  TGI: > 10 µM
LOX IMVI melanoma
  TGI: > 10 µM
A549 NSCLC
  TGI: > 10 µM
SNB-19 CNS
  TGI: > 10 µM
OVCAR-4 ovarian
  TGI: > 10 µM
NCI-H460 lung
  TGI: > 10 µM
UACC-62 melanoma
  TGI: > 10 µM
IGROV1 ovarian
  TGI: > 10 µM
SF-539 CNS
  TGI: > 10 µM
A498 renal
  TGI: > 10 µM
T-47D breast
  TGI: > 10 µM
HT29 colon
  TGI: > 10 µM
HOP-92 NSCLC
  TGI: > 10 µM
HL-60(TB) leukemia
  TGI: > 10 µM
EKVX NSCLC
  TGI: > 10 µM
DU-145 prostate
  TGI: > 10 µM
MDA-N
  TGI: > 10 µM
CCRF-CEM leukemia
  TGI: > 10 µM
MDA-MB-435
  TGI: > 10 µM
SK-OV-3 ovarian
  TGI: > 10 µM
786-0 renal
  TGI: > 10 µM
TK-10 renal
  TGI: > 10 µM
ACHN renal
  TGI: > 10 µM
HCT-116 colon
  TGI: > 10 µM
COLO 205 colon
  TGI: > 10 µM
OVCAR-3 ovarian
  TGI: > 10 µM
SK-MEL-28 melanoma
  TGI: > 10 µM
OVCAR-8 ovarian
  TGI: > 10 µM
SNB-75 CNS
  TGI: > 10 µM
MALME-3M melanoma
  TGI: > 10 µM
HCC-2998 colon
  TGI: > 10 µM
HS 578T breast
  TGI: > 10 µM
SF-295 CNS
  TGI: > 10 µM
KM12 colon
  TGI: > 10 µM
SW-620 colon
  TGI: > 10 µM
NCI/ADR-RES ovarian
  TGI: > 10 µM
CAKI-1 renal
  TGI: > 10 µM
HOP-62 NSCLC
  TGI: > 10 µM
SN12C renal
  TGI: > 10 µM
MDA-MB-231 breast
  TGI: > 10 µM
PC-3 prostate
  TGI: > 10 µM
MOLT-4 leukemia
  TGI: > 10 µM
NCI-H23 lung
  TGI: > 10 µM
UACC-257 melanoma
  TGI: > 10 µM
U251 CNS
  TGI: > 10 µM
SK-MEL-2 melanoma
  TGI: > 10 µM
HCT-15 colon
  TGI: > 10 µM
RPMI-8226 leukemia
  TGI: > 10 µM

## CCOc1cc(CC[N+](C)(C)C)c2c(ccc3ccc(OC)c(OC)c32)c1OC
M14 melanoma
  TGI: > 100 µM
SR leukemia
  TGI: > 100 µM
BT-549 breast
  TGI: > 100 µM
NCI-H522 lung
  TGI: > 100 µM
UO-31 renal
  TGI: > 100 µM
SF-268 CNS
  TGI: > 100 µM
SK-MEL-5 melanoma
  TGI: > 100 µM
A549 NSCLC
  TGI: > 100 µM
SNB-19 CNS
  TGI: > 100 µM
UACC-62 melanoma
  TGI: > 100 µM
IGROV1 ovarian
  TGI: > 100 µM
T-47D breast
  TGI: > 100 µM
HT29 colon
  TGI: > 100 µM
HOP-92 NSCLC
  TGI: > 100 µM
EKVX NSCLC
  TGI: > 100 µM
DU-145 prostate
  TGI: > 100 µM
MDA-N
  TGI: > 100 µM
MDA-MB-435
  TGI: > 100 µM
SK-OV-3 ovarian
  TGI: > 100 µM
786-0 renal
  TGI: > 100 µM
ACHN renal
  TGI: > 100 µM
HCT-116 colon
  TGI: > 100 µM
COLO 205 colon
  TGI: > 100 µM
OVCAR-3 ovarian
  TGI: > 100 µM
SK-MEL-28 melanoma
  TGI: > 100 µM
OVCAR-8 ovarian
  TGI: > 100 µM
SNB-75 CNS
  TGI: > 100 µM
MALME-3M melanoma
  TGI: > 100 µM
HCC-2998 colon
  TGI: > 100 µM
SF-295 CNS
  TGI: > 100 µM
SW-620 colon
  TGI: > 100 µM
NCI/ADR-RES ovarian
  TGI: > 100 µM
CAKI-1 renal
  TGI: > 100 µM
SN12C renal
  TGI: > 100 µM
MDA-MB-231 breast
  TGI: > 100 µM
PC-3 prostate
  TGI: > 100 µM
U251 CNS
  TGI: > 100 µM
RPMI-8226 leukemia
  TGI: > 100 µM

## Cc1ccc(S(=O)(=O)NCCCSCCN)cc1
M14 melanoma
  TGI: > 100 µM
SR leukemia
  TGI: > 100 µM
K-562 leukemia
  TGI: > 100 µM
NCI-H522 lung
  TGI: > 100 µM
MCF7 breast
  TGI: > 100 µM
UO-31 renal
  TGI: > 100 µM
NCI-H226 lung
  TGI: > 100 µM
RXF 393 renal
  TGI: > 100 µM
SF-268 CNS
  TGI: > 100 µM
SK-MEL-5 melanoma
  TGI: > 100 µM
LOX IMVI melanoma
  TGI: > 100 µM
A549 NSCLC
  TGI: > 100 µM
SNB-19 CNS
  TGI: > 100 µM
OVCAR-4 ovarian
  TGI: > 100 µM
NCI-H460 lung
  TGI: > 100 µM
A498 renal
  TGI: > 100 µM
T-47D breast
  TGI: > 100 µM
HT29 colon
  TGI: > 100 µM
HOP-92 NSCLC
  TGI: > 100 µM
HL-60(TB) leukemia
  TGI: > 100 µM
DU-145 prostate
  TGI: > 100 µM
MDA-N
  TGI: > 100 µM
CCRF-CEM leukemia
  TGI: > 100 µM
MDA-MB-435
  TGI: > 100 µM
SK-OV-3 ovarian
  TGI: > 100 µM
TK-10 renal
  TGI: > 100 µM
ACHN renal
  TGI: > 100 µM
HCT-116 colon
  TGI: > 100 µM
COLO 205 colon
  TGI: > 100 µM
OVCAR-3 ovarian
  TGI: > 100 µM
SK-MEL-28 melanoma
  TGI: > 100 µM
OVCAR-8 ovarian
  TGI: > 100 µM
SNB-75 CNS
  TGI: > 100 µM
HCC-2998 colon
  TGI: > 100 µM
HS 578T breast
  TGI: > 100 µM
SF-295 CNS
  TGI: > 100 µM
KM12 colon
  TGI: > 100 µM
SW-620 colon
  TGI: > 100 µM
NCI/ADR-RES ovarian
  TGI: > 100 µM
SN12C renal
  TGI: > 100 µM
MDA-MB-231 breast
  TGI: > 100 µM
PC-3 prostate
  TGI: > 100 µM
MOLT-4 leukemia
  TGI: > 100 µM
NCI-H23 lung
  TGI: > 100 µM
UACC-257 melanoma
  TGI: > 100 µM
U251 CNS
  TGI: > 100 µM
HCT-15 colon
  TGI: > 100 µM

## O=C(CCl)N1CCN(c2ccccc2)CC1
M14 melanoma
  TGI: 35.2 µM
SR leukemia
  TGI: > 100 µM
K-562 leukemia
  TGI: > 100 µM
MCF7 breast
  TGI: 42.4 µM
UO-31 renal
  TGI: 32 µM
OVCAR-5 ovarian
  TGI: 34.9 µM
RXF 393 renal
  TGI: 35.2 µM
SF-268 CNS
  TGI: 33 µM
SK-MEL-5 melanoma
  TGI: 31.1 µM
A549 NSCLC
  TGI: 43.3 µM
SNB-19 CNS
  TGI: > 100 µM
OVCAR-4 ovarian
  TGI: 32.9 µM
NCI-H460 lung
  TGI: 34.9 µM
IGROV1 ovarian
  TGI: 51.7 µM
A498 renal
  TGI: 47.2 µM
T-47D breast
  TGI: 45.8 µM
HT29 colon
  TGI: 41.4 µM
HOP-92 NSCLC
  TGI: 36.2 µM
HL-60(TB) leukemia
  TGI: 41.2 µM
EKVX NSCLC
  TGI: 44.2 µM
DU-145 prostate
  TGI: > 100 µM
MDA-N
  TGI: 39.9 µM
CCRF-CEM leukemia
  TGI: > 100 µM
SK-OV-3 ovarian
  TGI: > 100 µM
786-0 renal
  TGI: 29.3 µM
TK-10 renal
  TGI: 34.8 µM
ACHN renal
  TGI: 41.1 µM
HCT-116 colon
  TGI: 35.5 µM
COLO 205 colon
  TGI: 40 µM
SK-MEL-28 melanoma
  TGI: 35.7 µM
OVCAR-8 ovarian
  TGI: 97.2 µM
SNB-75 CNS
  TGI: 32.5 µM
MALME-3M melanoma
  TGI: 42.8 µM
HCC-2998 colon
  TGI: 32.2 µM
HS 578T breast
  TGI: 76.7 µM
SF-295 CNS
  TGI: 36.2 µM
KM12 colon
  TGI: 37.2 µM
SW-620 colon
  TGI: 54.3 µM
NCI/ADR-RES ovarian
  TGI: > 100 µM
CAKI-1 renal
  TGI: 29.9 µM
HOP-62 NSCLC
  TGI: 36.3 µM
PC-3 prostate
  TGI: 59.4 µM
MOLT-4 leukemia
  TGI: > 100 µM
NCI-H23 lung
  TGI: 35.6 µM
UACC-257 melanoma
  TGI: 43.6 µM
U251 CNS
  TGI: 34.4 µM
HCT-15 colon
  TGI: 39.2 µM
RPMI-8226 leukemia
  TGI: 85.5 µM
